According to ChEMBL document CHEMBL4433268, “Rational design of a SHP-2 targeted, fluorogenic peptide substrate” (Bioorg Med Chem Lett, 2019):
Activity calls are given as the source filed them. The rule behind the calls is not given here. Non-standard residues stand in square brackets, D forms with d. Residues, ends and D or L forms follow the SMILES beside them. Ala(7-OPO3H2-coumarin-4-yl) = N[C@@H](Cc1cc(=O)oc2cc(OP(=O)(O)O)ccc12)C(=O)O

Experiments:
[1] = target: T1, Tyrosine-protein phosphatase non-receptor type 11 (Homo sapiens) (UniProt Q06124); experiment: Substrate activity at SHP2 (unknown origin) expressed in Escherichia coli BL21 (DE3) incubated for 60 mins by fluorescence based assay
T1 sequence (whole entry): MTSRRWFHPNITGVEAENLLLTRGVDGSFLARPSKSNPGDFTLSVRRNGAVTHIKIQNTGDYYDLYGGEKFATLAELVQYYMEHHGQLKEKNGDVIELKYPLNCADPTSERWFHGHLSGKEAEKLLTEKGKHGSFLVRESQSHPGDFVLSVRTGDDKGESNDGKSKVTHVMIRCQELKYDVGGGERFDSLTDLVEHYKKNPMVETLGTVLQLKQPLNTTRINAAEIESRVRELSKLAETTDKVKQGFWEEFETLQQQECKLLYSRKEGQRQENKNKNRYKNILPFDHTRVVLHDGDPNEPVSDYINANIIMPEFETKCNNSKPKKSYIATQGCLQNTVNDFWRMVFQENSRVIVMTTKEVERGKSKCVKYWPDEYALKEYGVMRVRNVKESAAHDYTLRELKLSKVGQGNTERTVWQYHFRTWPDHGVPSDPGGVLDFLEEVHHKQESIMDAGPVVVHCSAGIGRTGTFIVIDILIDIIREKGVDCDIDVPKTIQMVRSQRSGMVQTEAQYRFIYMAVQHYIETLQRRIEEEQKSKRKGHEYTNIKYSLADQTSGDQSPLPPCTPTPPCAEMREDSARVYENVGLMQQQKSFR

[2] = target: Receptor-type tyrosine-protein phosphatase mu (Homo sapiens) (UniProt P28827); experiment: Substrate activity at PTPmu (unknown origin) expressed in Escherichia coli BL21 (DE3) incubated for 60 mins by fluorescence based assay
Chain of Receptor-type tyrosine-protein phosphatase mu (Homo sapiens) (P28827 whole entry): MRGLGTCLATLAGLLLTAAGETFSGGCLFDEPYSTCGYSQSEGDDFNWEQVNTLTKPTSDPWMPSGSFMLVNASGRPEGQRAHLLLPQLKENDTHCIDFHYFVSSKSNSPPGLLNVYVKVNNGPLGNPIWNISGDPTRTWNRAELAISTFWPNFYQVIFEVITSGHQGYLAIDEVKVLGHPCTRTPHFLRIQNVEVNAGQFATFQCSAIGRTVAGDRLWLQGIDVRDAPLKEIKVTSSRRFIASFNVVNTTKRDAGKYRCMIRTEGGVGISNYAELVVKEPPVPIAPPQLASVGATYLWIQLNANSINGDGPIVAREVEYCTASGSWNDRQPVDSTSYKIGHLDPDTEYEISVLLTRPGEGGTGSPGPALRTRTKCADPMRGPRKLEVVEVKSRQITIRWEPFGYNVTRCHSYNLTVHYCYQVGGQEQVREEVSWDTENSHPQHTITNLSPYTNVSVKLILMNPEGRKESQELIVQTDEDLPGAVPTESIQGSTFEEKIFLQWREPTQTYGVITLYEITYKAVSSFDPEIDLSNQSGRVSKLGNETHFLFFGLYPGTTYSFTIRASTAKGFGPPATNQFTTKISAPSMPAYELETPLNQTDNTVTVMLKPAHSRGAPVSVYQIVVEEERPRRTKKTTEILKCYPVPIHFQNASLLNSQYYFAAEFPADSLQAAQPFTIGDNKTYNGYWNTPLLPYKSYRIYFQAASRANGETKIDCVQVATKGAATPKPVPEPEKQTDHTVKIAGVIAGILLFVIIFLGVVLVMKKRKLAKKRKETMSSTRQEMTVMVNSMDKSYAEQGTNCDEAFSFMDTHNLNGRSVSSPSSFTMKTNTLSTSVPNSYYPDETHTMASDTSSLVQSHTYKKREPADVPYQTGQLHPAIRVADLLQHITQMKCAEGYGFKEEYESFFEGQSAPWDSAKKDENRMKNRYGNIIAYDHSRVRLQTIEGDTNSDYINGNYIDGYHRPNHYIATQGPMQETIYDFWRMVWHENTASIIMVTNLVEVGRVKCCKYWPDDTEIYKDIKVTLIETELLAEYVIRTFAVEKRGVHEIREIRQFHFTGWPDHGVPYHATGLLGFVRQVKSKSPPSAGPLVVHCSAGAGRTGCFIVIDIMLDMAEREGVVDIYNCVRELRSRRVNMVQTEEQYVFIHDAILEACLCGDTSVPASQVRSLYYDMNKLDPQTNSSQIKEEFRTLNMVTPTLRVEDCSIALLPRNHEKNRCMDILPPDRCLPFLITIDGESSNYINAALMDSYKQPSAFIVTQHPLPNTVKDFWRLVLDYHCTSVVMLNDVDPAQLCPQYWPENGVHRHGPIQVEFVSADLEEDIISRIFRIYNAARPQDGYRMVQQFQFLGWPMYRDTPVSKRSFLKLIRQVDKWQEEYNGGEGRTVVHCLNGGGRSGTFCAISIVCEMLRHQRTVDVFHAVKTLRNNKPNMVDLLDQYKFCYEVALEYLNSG

[3] = target: T2, Tyrosine-protein phosphatase non-receptor type 7 (Homo sapiens) (UniProt P35236); experiment: Substrate activity at HEPTP (unknown origin) expressed in Escherichia coli BL21 (DE3) incubated for 60 mins by fluorescence based assay
T2 sequence (whole entry): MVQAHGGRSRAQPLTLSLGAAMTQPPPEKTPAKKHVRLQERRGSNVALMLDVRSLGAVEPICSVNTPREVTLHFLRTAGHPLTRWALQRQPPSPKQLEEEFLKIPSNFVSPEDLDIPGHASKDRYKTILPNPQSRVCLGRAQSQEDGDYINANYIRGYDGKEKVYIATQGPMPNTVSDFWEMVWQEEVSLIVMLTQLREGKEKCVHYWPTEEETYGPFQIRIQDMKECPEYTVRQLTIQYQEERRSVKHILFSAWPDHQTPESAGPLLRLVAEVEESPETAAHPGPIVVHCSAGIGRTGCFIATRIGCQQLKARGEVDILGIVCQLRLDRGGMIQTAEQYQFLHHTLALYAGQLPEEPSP

[4] = target: T3, Tyrosine-protein phosphatase non-receptor type 4 (Homo sapiens) (UniProt P29074); experiment: Substrate activity at MEG1 (unknown origin) expressed in Escherichia coli BL21 (DE3) incubated for 60 mins by fluorescence based assay
T3 sequence (whole entry): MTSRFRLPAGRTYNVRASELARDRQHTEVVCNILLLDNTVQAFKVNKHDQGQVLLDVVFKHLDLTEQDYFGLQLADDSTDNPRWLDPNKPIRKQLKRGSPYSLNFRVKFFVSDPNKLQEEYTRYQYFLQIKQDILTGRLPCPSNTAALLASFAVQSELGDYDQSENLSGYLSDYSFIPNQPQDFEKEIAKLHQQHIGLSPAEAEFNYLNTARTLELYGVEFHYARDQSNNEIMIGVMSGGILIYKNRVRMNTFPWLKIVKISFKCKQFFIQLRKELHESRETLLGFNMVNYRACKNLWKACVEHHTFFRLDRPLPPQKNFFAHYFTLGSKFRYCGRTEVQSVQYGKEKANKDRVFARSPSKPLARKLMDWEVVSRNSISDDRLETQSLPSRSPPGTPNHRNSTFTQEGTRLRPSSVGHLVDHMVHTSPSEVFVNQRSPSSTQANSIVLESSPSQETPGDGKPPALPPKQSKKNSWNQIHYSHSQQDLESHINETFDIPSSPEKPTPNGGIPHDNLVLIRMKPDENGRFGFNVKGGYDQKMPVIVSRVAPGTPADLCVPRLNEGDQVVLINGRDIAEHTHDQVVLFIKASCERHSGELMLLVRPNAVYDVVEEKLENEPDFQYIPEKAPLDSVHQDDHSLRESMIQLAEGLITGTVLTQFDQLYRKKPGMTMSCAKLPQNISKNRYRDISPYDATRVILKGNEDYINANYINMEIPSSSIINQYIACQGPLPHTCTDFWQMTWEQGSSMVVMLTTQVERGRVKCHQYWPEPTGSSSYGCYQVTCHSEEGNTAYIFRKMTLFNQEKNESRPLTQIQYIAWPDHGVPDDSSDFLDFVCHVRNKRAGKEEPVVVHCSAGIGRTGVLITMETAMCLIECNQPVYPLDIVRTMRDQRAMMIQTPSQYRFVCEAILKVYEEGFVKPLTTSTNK

[5] = target: T4, Tyrosine-protein phosphatase non-receptor type 22 (Homo sapiens) (UniProt Q9Y2R2); experiment: Substrate activity at LYP (unknown origin) expressed in Escherichia coli BL21 (DE3) incubated for 60 mins by fluorescence based assay
T4 sequence (whole entry): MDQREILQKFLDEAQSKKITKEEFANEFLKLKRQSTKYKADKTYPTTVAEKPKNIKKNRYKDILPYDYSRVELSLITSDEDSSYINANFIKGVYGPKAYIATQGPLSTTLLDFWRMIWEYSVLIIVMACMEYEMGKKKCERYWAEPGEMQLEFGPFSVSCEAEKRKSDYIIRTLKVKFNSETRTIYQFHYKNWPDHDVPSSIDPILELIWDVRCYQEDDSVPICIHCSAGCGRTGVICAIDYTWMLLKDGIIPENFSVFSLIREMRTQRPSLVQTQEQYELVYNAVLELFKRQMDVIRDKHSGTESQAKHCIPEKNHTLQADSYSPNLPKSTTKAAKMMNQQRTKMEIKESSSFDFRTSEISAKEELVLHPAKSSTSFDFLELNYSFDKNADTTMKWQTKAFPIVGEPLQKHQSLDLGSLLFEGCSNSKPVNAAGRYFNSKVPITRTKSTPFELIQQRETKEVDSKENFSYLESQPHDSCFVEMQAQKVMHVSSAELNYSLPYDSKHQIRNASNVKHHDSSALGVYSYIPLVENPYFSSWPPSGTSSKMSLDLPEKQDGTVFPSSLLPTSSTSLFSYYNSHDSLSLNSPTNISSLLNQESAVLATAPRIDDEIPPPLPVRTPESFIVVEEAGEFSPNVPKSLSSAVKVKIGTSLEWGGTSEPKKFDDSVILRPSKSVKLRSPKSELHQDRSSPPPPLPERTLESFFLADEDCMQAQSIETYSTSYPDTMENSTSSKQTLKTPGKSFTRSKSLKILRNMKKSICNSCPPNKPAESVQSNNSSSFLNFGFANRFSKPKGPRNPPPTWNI

Row | Activity [1] | Activity [2] | Activity [3] | Activity [4] | Activity [5] | Compound
1 | Active | inactive |  |  |  | CC[C@H](C)[C@H](NC(=O)[C@@H](NC(=O)[C@H](CO)NC(=O)[C@H](CC(=O)O)NC(C)=O)[C@@H](C)O)C(=O)N[C@@H](Cc1cc(=O)oc2cc(OP(=O)(O)O)ccc12)C(=O)N[C@H](C(=O)N[C@H](C(=O)N[C@@H](CC(C)C)C(=O)N[C@@H](CC(=O)O)C(N)=O)C(C)C)C(C)C (Ac-DSTI[Ala(7-OPO3H2-coumarin-4-yl)]VVLD-NH2)
2 | Active | inactive |  |  |  | CC[C@H](C)[C@H](NC(=O)[C@@H](NC(=O)[C@@H]1CCCN1C(=O)[C@H](CC(=O)O)NC(C)=O)[C@@H](C)O)C(=O)N[C@@H](Cc1cc(=O)oc2cc(OP(=O)(O)O)ccc12)C(=O)N1CCC[C@H]1C(=O)N[C@H](C(=O)N[C@@H](CC(C)C)C(=O)N[C@@H](CC(=O)O)C(N)=O)C(C)C (Ac-DPTI[Ala(7-OPO3H2-coumarin-4-yl)]PVLD-NH2)
3 | Active | inactive | inactive | inactive | Active | CC[C@H](C)[C@H](NC(=O)[C@@H](NC(=O)[C@H](CC(=O)O)NC(=O)[C@H](CC(=O)O)NC(C)=O)[C@@H](C)O)C(=O)N[C@@H](Cc1cc(=O)oc2cc(OP(=O)(O)O)ccc12)C(=O)N[C@@H](CC(=O)O)C(=O)N[C@H](C(=O)N[C@@H](CC(C)C)C(=O)N[C@@H](CC(=O)O)C(N)=O)C(C)C (Ac-DDTI[Ala(7-OPO3H2-coumarin-4-yl)]DVLD-NH2)
4 | Active | inactive |  |  |  | CC[C@H](C)[C@H](NC(=O)[C@@H](NC(=O)[C@H](CO)NC(=O)[C@H](CC(=O)O)NC(C)=O)[C@@H](C)O)C(=O)N[C@@H](Cc1cc(=O)oc2cc(OP(=O)(O)O)ccc12)C(=O)N[C@@H](CC(=O)O)C(=O)N[C@H](C(=O)N[C@@H](CC(C)C)C(=O)N[C@@H](CC(=O)O)C(N)=O)C(C)C (Ac-DSTI[Ala(7-OPO3H2-coumarin-4-yl)]DVLD-NH2)
5 | Active | inactive | Active | Active | Active | CC[C@H](C)[C@H](NC(=O)[C@@H](NC(=O)[C@H](CC(=O)O)NC(=O)[C@H](CC(=O)O)NC(C)=O)[C@@H](C)O)C(=O)N[C@@H](Cc1cc(=O)oc2cc(OP(=O)(O)O)ccc12)C(=O)N[C@H](C(=O)N[C@H](C(=O)N[C@@H](CC(C)C)C(=O)N[C@@H](CC(=O)O)C(N)=O)C(C)C)C(C)C (Ac-DDTI[Ala(7-OPO3H2-coumarin-4-yl)]VVLD-NH2)
6 | Active | inactive |  |  |  | CC[C@H](C)[C@H](NC(=O)[C@@H](NC(=O)[C@H](CO)NC(=O)[C@H](CC(=O)O)NC(C)=O)[C@@H](C)O)C(=O)N[C@@H](Cc1cc(=O)oc2cc(OP(=O)(O)O)ccc12)C(=O)N[C@H](C(=O)N[C@H](C(=O)N[C@@H](CC(C)C)C(=O)N[C@@H](CC(=O)O)C(N)=O)C(C)C)[C@@H](C)O (Ac-DSTI[Ala(7-OPO3H2-coumarin-4-yl)]TVLD-NH2)
7 | Active | inactive |  |  |  | CC[C@H](C)[C@H](NC(=O)[C@@H](NC(=O)[C@H](CC(=O)O)NC(=O)[C@H](CC(=O)O)NC(C)=O)[C@@H](C)O)C(=O)N[C@@H](Cc1cc(=O)oc2cc(OP(=O)(O)O)ccc12)C(=O)N[C@H](C(=O)N[C@H](C(=O)N[C@@H](CC(C)C)C(=O)N[C@@H](CC(=O)O)C(N)=O)C(C)C)[C@@H](C)O (Ac-DDTI[Ala(7-OPO3H2-coumarin-4-yl)]TVLD-NH2)
